Laboratory results: paper PMC8147984, “Effects of Sponge-Derived Alkaloids on Activities of the Bacterial α-D-Galactosidase and Human Cancer Cell α-N-Acetylgalactosaminidase” (Biomedicines, 2021)

Columns and labels:
[1] = test system: DLD-1 cells; test: MTS cytotoxic activity assay on DLD-1 cells; format: cell-based, human
Procedure: DLD-1 cells (8 × 10^3/200 μL) were seeded in 96-well plates for 24 h at 37 °C in a 5% CO2 incubator. The cells were treated with compounds 1–9 at concentrations ranging from 0 to 20 μM for an additional 24 h. Subsequently, cells were incubated with 15 μL MTS (3-(4,5-dimethylthiazol-2-yl)-5-(3-carboxymethoxyphenyl)-2-(4-sulfophenyl)-2H-tetrazolium) reagent for 3 h, and the absorbance in each well was measured at 490/630 nm using a microplate reader “Power Wave XS” (Bio Tek, Winooski, VT, USA). All the experiments were repeated three times, and the mean absorbance values were calculated. The results are expressed in absorbance by the compound’s treatment compared to the non-treated cells (control 1) and the compounds in medium (control 2). All the experiments were made in triplicate.

[2] = biological target: T1, α-D-galactosidase (α-PsGal) (Pseudoalteromonas sp. KMM 701, UniProt Q19AX0); test: Inhibitory potency on recombinant α-PsGal (residual activity); format: biochemical; conditions: compound concentration 1.67 mM; preincubated 30 min, 20 °C, pH 7.0
T1 sequence (Q19AX0 1-710): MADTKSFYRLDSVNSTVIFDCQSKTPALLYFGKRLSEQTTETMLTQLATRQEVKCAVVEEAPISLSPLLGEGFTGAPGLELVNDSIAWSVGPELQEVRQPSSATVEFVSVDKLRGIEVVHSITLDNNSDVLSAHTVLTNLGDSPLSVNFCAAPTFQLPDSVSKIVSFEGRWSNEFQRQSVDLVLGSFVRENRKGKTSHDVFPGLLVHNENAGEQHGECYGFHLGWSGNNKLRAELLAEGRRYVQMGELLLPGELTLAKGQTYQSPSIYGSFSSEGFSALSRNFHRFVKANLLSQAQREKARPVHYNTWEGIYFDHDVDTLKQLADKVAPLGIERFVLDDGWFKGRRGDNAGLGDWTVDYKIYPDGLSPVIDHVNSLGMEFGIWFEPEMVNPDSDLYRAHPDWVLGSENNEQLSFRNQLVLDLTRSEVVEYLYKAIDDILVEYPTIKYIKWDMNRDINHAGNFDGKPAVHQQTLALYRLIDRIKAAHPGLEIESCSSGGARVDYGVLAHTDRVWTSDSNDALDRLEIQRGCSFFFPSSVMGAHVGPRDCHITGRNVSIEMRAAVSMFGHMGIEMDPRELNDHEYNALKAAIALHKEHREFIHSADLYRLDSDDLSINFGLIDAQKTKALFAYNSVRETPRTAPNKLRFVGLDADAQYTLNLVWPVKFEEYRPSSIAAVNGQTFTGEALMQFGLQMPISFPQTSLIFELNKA
Procedure: The recombinant wild-type α-D-galactosidase (α-PsGal) was produced as described earlier. The plasmid DNA pET-40b(+) containing insertion of the gene from the marine bacterium Pseudoalteromonas sp. KMM 701 encoding α-PsGal was transformed in the Escherichia coli strain Rosetta (DE3). Heterological expression was carried out at optimal conditions as described earlier. Purification of the recombinant […] was performed, according to described procedures. The purification quality was controlled by 12% Laemmli-SDS-PAGE-electrophoresis.
The activity of α-PsGal and α-NaGalase were determined by increasing the amount of p-nithrophenol (pNP). To assay the α-NaGalase activity 0.05 mL of cell extract and 0.1 mL of substrate pNPNA-α-Gal (8.8 mM) in 0.05 M sodium citrate buffer, pH 5.0 were placed in cells of 96-well plate and incubated at 37 °C for 30 min. The mixtures containing 0.05 mL of an enzyme solution and 0.1 mL of a substrate solution (3.3 mM) in 0.05 M sodium phosphate buffer (pH 7.0) were incubated at 20 °C during 5 min for determination of α-PsGal standard activity. The reactions were stopped by the addition of 0.15 mL of 1 M Na2CO3 solution.
Absorbance was measured at 400 nm. Results were read with a computer program Gen5 and treated with ExCel computer program. The unit of standard activity (U) was defined as the amount of the enzyme catalyzing the formation of 1 µmol of p-nitrophenol (ε400 = 18,300 M^−1 cm^−1) per 1 min under the conditions indicated. Specific activity (A) was calculated as the enzyme activity (U) per 1 mg of protein. All calculations were based on reactions with consumption of 10% of the chromogenic substrate. The protein concentrations were estimated by the Bradford method with BSA as a standard. Residual activity (%) was calculated with formula: Residual activity (%) = v/v0 ×100, where v is the initial reaction rate of enzymes under the action of an inhibitor or other factors, v0 is the initial reaction rate of enzymes in the absence of the influence of any factors. Buffer solutions of α-PsGal (0.1 U/mL) and α-NaGalase (0.01 U/mL) were used in the further experiments.
In the control sample, 5 μL of water or 2 μL of EtOH were added to 25 μL of enzyme solution. The enzyme reaction was initiated by adding 120 μL of the substrate pNP-α-Gal (3.3 mM) for α-PsGal or pNPNA-α-Gal (8.8 mM) for α-NaGalase in the respective buffer solutions. After 10 min for α-PsGal or 60 min for α-NaGalase the reaction was stopped by adding 150 μL of 1 M Na2CO3. The amount of pNP was quantified by spectrophotometric detection at 400 nm. Results were evaluated as the percent of residual activity as described above.

Compound	cytotoxicity against DLD-1 cells ([1]; 24 h, dose up to 20 μM)	decrease in cell viability ([1]; DLD-1 cells, 24 h, at 20 μM) [%]	Residual activity v/v0 (%) of the α-PsGal [2]	IC50 ([1]; Homo sapiens, DLD-1, 24 h, read-out: concentration that caused a 50% reduction in cell viability (IC50) of DLD-1 cells) [µM]
COc1cc2ccnc3c2c(c1O)N(C)C=C3 [Compound 2, isoaaptamine]	weakly cytotoxic	20	0 ^1%	
COc1cc2ccnc3c2c(c1O)NC=C3 [Compound 3, 9-demethylaaptamine]			0 ^1%	17 ± 0.2
